In US20110082204A1, “N-alkylcarbonyl-amino acid ester and N-alkylcarbonyl-amino lactone compounds and their use” (priority 2006, published 2011):
Blank lines part the entries; values can stand above or below the compound they belong to.

What was measured:
periorbital pain = test: Study 6: eye wipes in persistent periorbital pain; type: in vivo, human; conditions: eye wipes 1.0 mg/ml, one patient, three occasions
Method: (§1) For testing of cooling compounds delivered to the eyelids with a towelette, the following procedures were used in the experiments of Table 3 and in Study 5 and 6. Three ml of liquid suspension or solution in distilled water was added to a 0.4 g cotton rectangle (50 mm×60 mm) (CS-being, Daisan Cotton, Japan) and individually sealed with a vaccuum apparatus (Foodsaver®, Jarden Corp.). Samples were stored in the freezer or refrigerator and thawed to room temperature before use. Wiping with the cotton pad delivers 40 to 45 μl of liquid composition to the eyelids ([…] to 22 μl per eye). So, if the concentration of the test substance was 1 mg/ml, the dose delivered to both eyes is a total of ˜40 to […], or ˜20 μg per eye. This method allows a reliable delivery of test substances because the dissolved or suspended particles in solution are evenly dispersed on the cotton pad in an excess volume of liquid. The presence or absence of cooling sensations was noted as being present or absent at 5 to 10 min intervals until no coolness was noticeable in two successive test intervals. Only the duration of cooling on the ocular surface was recorded, without an attempt to quantify the intensity of the sensation.
A person suffered from “dry eyes” or keratoconjunctivitis sicca which was managed by artificial tears and eye drops containing lubricants. […]

eyelids/ocular surface = test: Cooling after wiping closed eyelids with a towelette; type: in vivo, human; conditions: for Duration of cooling, Eyelids/Ocular Surface: eye wipes, 1 mg/ml in 5%-95% v/v ethanol-distilled water
Method: A second method of testing was to take a towelette saturated with a test solution of the cooling agent and to wipe the towelette over the dosed eyelids. The presence or absence of cooling (or irritanty, if applicable) sensations was then recorded at 10 minute intervals until the cessation of coolness in two successive intervals.
as §1

[1] = Log P of tested compounds; type: physicochemical
allergic conjunctivitis = test: Study 5: eye wipes in allergic conjunctivitis; type: in vivo, human
Method: as §1
A laboratory scientist suffered from seasonal allergic conjunctivitis. This condition was severely aggravated when […] started doing experiments with laboratory animals (rats and mice) and […] became sensitized to the associated allergens. The conjunctivitis was not relieved by oral or topical eye drop antihistamines and the subject was reluctant to consider the use of anti-inflammatory steroid ointments. Upon examination, their eyes were blood-shot and watery and they kept rubbing their eyelids with their fingers even though they knew this action may further aggravate the itch and discomfort. They volunteered to try eye wipes containing 1.0 mg/ml of (R)-2-[((1 R,2S,5R)-2-isopropyl-5-methyl-cyclohexanecarbonyl)-amino]-acetic isopropyl ester (Gly-OiPr, No. 2, in table 1). The relief of itch and discomfort was obtained within 5 minutes and lasted for at least four hours.

philtrum skin = test: Cooling sensation after ointment applied to philtrum skin; type: in vivo, human; conditions: for Duration of cooling, Philtrum Skin: 5 mg/ml in Aquaphor ointment on philtrum skin; for duration of cooling (FIG. 1): 40 to 70 mg of 1% wt/vol (10 mg/ml) ointment on skin above the upper lips
Description: A reliable place for topical application is the skin above the upper lip (above the vermilion border of the lips), on the philtrum, lateral to the philtrum until the nasolabial folds, and on the lower nostrils (subnasale). This part of the face is known to be densely innervated with cold receptors, second only to the surfaces of the eyeball and anogenitalia.
The intensity of the subjective skin sensation is rated as 0, 1, 2 or 3 with: 0 as no change; 1 as slight coolness, cold, or tingling; 2 as clear-cut signal of coolness, cold, or tingling; and 3 as robust cooling or cold. The intervals for recording sensations are 5 to 10 minutes, until two successive zeroes are obtained. The results (shown in FIG. 1) are averaged values of 4 to 6 separate trials in the same individual. The data are plotted using SigmaPlot® (Systat Software, Point Richmond Calif.) and a smoothing function with a negative exponential was used for analysis and statistical fit of the results. Confirmatory trials of cooling action of the long-acting NACE compounds were obtained in 2 to 4 individuals but not quantified for some because of the large number of chemicals that were evaluated
(§2) The onset of drug action is taken as the time to reach 2 units of coolness intensity, and offset of drug action is the time when coolness intensity drops below 2, after previously surpassing 2 units. The duration of cooling action is defined as the offset time minus the onset time. […] The quality of the sensation is noted, for example, as pure refreshing coolness, or if the sensation is accompanied by irritation (stinging or burning). The quality of the sensation is not rated for intensity.
For bioassay on the skin, approximately 30 mg was stirred and dissolved in 3 g of warm liquid Aquaphor® ointment to a yield 5 to 10 mg/ml (0.5% to 1.0 wt/vol) ointment. After cooling, 40 to 70 mg of the solid ointment was placed on the tip of a plastic stick and applied to the skin above the upper lip, on the philtrum, and lateral to the philtrum, up to the nasolabial folds, of test subjects and the onset and duration of cooling sensations noted.
The intensity of the subjective skin sensation was rated as 0, 1, 2 or 3 with: 0 as no change; 1 as slight coolness, cold, or tingling; 2 as clear signal of coolness, cold, or tingling; and 3 as robust cooling or cold. The intervals for recording sensations were 5 to 10 minutes, until two successive zeroes were obtained. The results (shown in FIG. 1) are averaged values of 4 to 6 separate trials in the same individual. The data are plotted using SigmaPlot® (Systat Software, Point Richmond, Calif., USA) and a smoothing function with a negative exponential was used for analysis and statistical fit of the results.
as §2, with “was” for “is”, “was also noted: such” for “is noted, for example,”
For the results in FIG. 1, the test compounds were singly applied to the skin above the upper lips at a 40 to 70 mg dose of a 1% wt/vol (10 mg/ml) ointment. Subsequently, for the results shown in Table 3, the test dose on the philtrum was reduced to a 0.5% wt/vol (5 mg/ml) ointment. The reason for choosing a lower dose was to increase the number of trials per individual and to have a reduced chance of substances accumulating in the skin.

[2] = system: dorsal surface of the tongue; test: Tongue cooling threshold, impregnated filter paper (Watson et al.); type: in vivo, human; conditions: summary comparison
Method: Watson et al. (U.S. Pat. No. 4,178,459) tested the properties of N-substituted p-menthane carboxamides. However, the branched chain alkylesters such as the isopropyl analogs described here in the Gly and D-Ala configuration of Formula 1 were never synthesized by Watson et al. Bioactivity of the Watson et at compounds were tested by putting filter paper (1×1 cm), impregnated with a known amount of compound, onto the dorsal surface of the tongue of the volunteer test subject. After 30 seconds, the subject was required to report presence or absence of a cooling effect. […] The average threshold of (−)-menthol for 6 subjects was 0.25 μg, but there was a 100-fold variation in individual sensitivity. The potencies of coolness signals detected from the dorsal surface of the tongue are not correlated to skin sensations of coolness may be confounded by gustatory, olfactory, and other variables, as well as by dilution from saliva.

[3] = system: dorsal surface of the tongue; conditions: threshold amount producing cooling on tongue of human volunteers; values from Watson US 04178459; cited from earlier work
periorbital skin = test: Ointment applied to periorbital skin: coolness, eye irritancy, alerting (Study 3); type: in vivo, human
Description: The ointment was also applied to the periorbital skin (upper and lower eyelids and on skin adjacent to the lateral canthus) for tests of irritancy near the eyes, and the subject is asked if irritation is present or absent. The intensity of the eye sensation is not rated.
For tests of irritancy near the eyes in Study 3 and 4, the ointment was applied to the periorbital skin (upper and lower eyelids and on skin adjacent to the lateral canthus), and the subject asked if irritation is present or absent. The intensity of the eye sensation is not rated, but just noted as being present or absent
A 1% preparation of 2-isopropyl-5-methyl-cyclohexanecarbonyl D-alanine methyl ester in Aquaphor® ointment was applied bilaterally to the periorbital area of four individuals. […] This experiment was then repeated three days later in the evening with the same individuals whose occupations required daylong activities before a computer screen.

sleepiness and fatigue = test: Study 4: eye wipes against sleepiness and fatigue; type: in vivo, human; conditions: for onset and intensity of awakening effect: eye wipes, compared with the other analogs
Method: as §1
Three high-powered business executives who regularly spent long hours at the negotiating tables or at meetings felt “burnt out” by their professional activities and frequently felt tired and sleepy-eyed in the social arena. They volunteered to try eye wipes containing 1.0 mg/ml of (R)-2-[((1R,2S,5R)-2-isopropyl-5-methyl-cyclohexanecarbonyl)-amino]-propionic acid isopropyl ester (D-Ala-OiPr, No. 1, in table 1) to see if the eye wipes will refresh and awaken their interest during meetings. […] They became alert and vigilant and more pro-active in their social milieu.

face = test: Study 2: towelette used to wipe the face in hot weather; type: in vivo, human; conditions: for duration of pleasant cooling sensations: 10% propylene glycol/90% water
Method: 2-Isopropyl-5-methyl-cyclohexanecarbonyl D-alanine methyl ester was dissolved in warm 10% propylene-glycoV90% distilled water solution to give a concentration of either 0.1 or 0.5% wt/vol (1 or 5 mg/mL). Six to seven milliliters of these solutions were then applied with a pipette onto a paper napkin (Luncheon Napkins, Kirkland Signature brand from Costco, Inc.) The napkin was 1-ply with a 30.4×29.5 cm dimension. Each napkin was then hermetically sealed in a plastic envelope (Foodsaver by Tilia). On two separate occasions involving golfing trips to Los Angeles, Calif., USA, where air temperatures exceeded […] (90° F.), these towelettes were used to wipe the face. Pleasant cooling sensations were obtained that lasted for about 10 minute for the 0.1% concentration towelette and about 60 minutes for the 0.5% towelette.

[4] = eye wipes 1.0 mg/ml, one subject
[5] = 1% in Aquaphor ointment, periorbital area, four individuals

logP [1]: 3.3
Compound: CC(C)OC(=O)CNC(=O)[C@@H]1C[C@H](C)CC[C@H]1C(C)C [Gly iPr Ester, (R)-2-[((1R,2S,5R)-2-isopropyl-5-methyl-cyclohexanecarbonyl)-amino]-acetic acid isopropyl ester]
relief of periorbital pain (periorbital pain): immediate relief | Duration of cooling, Eyelids/Ocular Surface (eyelids/ocular surface): 300 min | duration of relief of itch and discomfort (allergic conjunctivitis; [4]): at least four | time to relief of itch and discomfort (allergic conjunctivitis; [4]): ≤ 5 min | over-all itchiness and redness (allergic conjunctivitis; wipes used as needed for three days): over-all itchiness and redness were reduced significantly | Duration of cooling, Philtrum Skin (philtrum skin): 27 min

Compound: CC1CCC(C(C)C)C(O)C1 (single isomer, unassigned; (-)) [(−)-menthol, reference compound]
Cooling on tongue [2]: yes | Acts for >1 hour at 1 mg/ml (eyelids/ocular surface; 1 mg/ml): no | Threshold tongue [3]: 0.25 µg | Eye Irritancy (periorbital skin; summary comparison): yes | duration of cooling (FIG. 1) (philtrum skin): 0.3 h | Cooling on skin of face (philtrum skin; summary comparison): yes | “perfect” cooling experience (philtrum skin; summary comparison): no

logP [1]: 3.1
Compound: CCOC(=O)[C@@H](C)NC(=O)[C@@H]1C[C@H](C)CC[C@H]1C(C)C [D-Ala Et Ester, (R)-2-[((1R,2S,5R)-2-isopropyl-5-methyl-cyclohexanecarbonyl)-amino]-propionic acid ethyl ester]
Duration of cooling, Eyelids/Ocular Surface (eyelids/ocular surface): 180 min | onset and intensity of awakening effect (sleepiness and fatigue): faster onset and more intense awakening effect | Duration of cooling, Philtrum Skin (philtrum skin): 103 min | duration of cooling (FIG. 1) (philtrum skin): 2.4 h

logP [1]: 2.8
Compound: COC(=O)[C@@H](C)NC(=O)[C@@H]1C[C@H](C)CC[C@H]1C(C)C [D-Ala Me Ester, (R)-2-[((1R,2S,5R)-2-isopropyl-5-methyl-cyclohexanecarbonyl)-amino]-propionic acid methyl ester]
Duration of cooling, Eyelids/Ocular Surface (eyelids/ocular surface): 120 min | onset and intensity of awakening effect (sleepiness and fatigue): faster onset and more intense awakening effect | Onset of coolness on the skin (periorbital skin; [5]): 1 min | duration of alerting effect (periorbital skin; [5]): about one | duration of coolness on the skin (average) (periorbital skin; [5]): 30 min | irritation of skin / eye surfaces (periorbital skin; ointment on periorbital area): No irritation of the eye surfaces was noted | duration of pleasant cooling sensations (face; 0.1% wt/vol (1 mg/mL) towelette): about 10 minute | eye irritation (face; 0.1 or 0.5% towelette): No eye irritation was observed | duration of pleasant cooling sensations (face; 0.5% wt/vol (5 mg/mL) towelette): about 60 minutes | Duration of cooling, Philtrum Skin (philtrum skin): 77 min | duration of cooling (FIG. 1) (philtrum skin): 1.9 h

logP [1]: 3.7
Compound: CC(C)OC(=O)[C@@H](C)NC(=O)[C@@H]1C[C@H](C)CC[C@H]1C(C)C [D-Ala iPr Ester, (R)-2-[((1R,2S,5R)-2-isopropyl-5-methyl-cyclohexanecarbonyl)-amino]-propionic acid isopropyl ester]
Duration of cooling, Eyelids/Ocular Surface (eyelids/ocular surface): 360 min | effect on sleepiness and fatigue (sleepiness and fatigue; eye wipes 1.0 mg/ml, three executives): the sense of sleepiness and fatigue was reduced for the next several hours | Duration of cooling, Philtrum Skin (philtrum skin): 34 min
